The test has as its target T1, TPMTwt (Homo sapiens, UniProt P51580).
T1 construct: gene TPMT; recombinant, pET-28a, E. coli BL21(DE3) CodonPlus, His-tag cleaved off with thrombin, Ni-NTA and gel filtration
T1 sequence (P51580 1-245): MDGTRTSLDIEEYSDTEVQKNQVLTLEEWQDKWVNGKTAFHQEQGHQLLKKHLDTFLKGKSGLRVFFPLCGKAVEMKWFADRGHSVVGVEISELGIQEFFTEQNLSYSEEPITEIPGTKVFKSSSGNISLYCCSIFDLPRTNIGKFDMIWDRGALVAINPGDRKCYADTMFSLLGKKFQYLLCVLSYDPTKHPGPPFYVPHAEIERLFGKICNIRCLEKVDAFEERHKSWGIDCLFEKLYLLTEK
The test is described as follows: isothermal titration calorimetry. It is filed as binding.

Molecules are shown by their SMILES.

For `C[S+](CC[C@H](N)C(=O)O)C[C@H]1O[C@@H](n2cnc3c(N)ncnc32)[C@H](O)[C@@H]1O` (stereo partly shown) [SAM], the Kd (usually the equilibrium constant for the complex coming apart) was found to be 2.7 µM. This lies in the single-digit micromolar range.

The record behind these values is PMC5411961, “One amino acid makes a difference–Characterization of a new TPMT allele and the influence of SAM on TPMT stability” (Scientific Reports, 2017).
